Experimental data as given in patent US20230019491A1, “PYRIMIDINE TBK/IKKe INHIBITOR COMPOUNDS AND USES THEREOF” (Merck Patent GmbH, priority 2017, published 2023).

Legend:
[1] = target: T1, TBK1 (Homo sapiens, UniProt Q9UHD2); experiment: TBK biochemical assay; conditions: 10 point 1:4 dose response, 30 uM top concentration, 90 min at 25° C., LabChip EZ Reader II; read-out: TBK1_IC50
T1 sequence (Q9UHD2 1-729): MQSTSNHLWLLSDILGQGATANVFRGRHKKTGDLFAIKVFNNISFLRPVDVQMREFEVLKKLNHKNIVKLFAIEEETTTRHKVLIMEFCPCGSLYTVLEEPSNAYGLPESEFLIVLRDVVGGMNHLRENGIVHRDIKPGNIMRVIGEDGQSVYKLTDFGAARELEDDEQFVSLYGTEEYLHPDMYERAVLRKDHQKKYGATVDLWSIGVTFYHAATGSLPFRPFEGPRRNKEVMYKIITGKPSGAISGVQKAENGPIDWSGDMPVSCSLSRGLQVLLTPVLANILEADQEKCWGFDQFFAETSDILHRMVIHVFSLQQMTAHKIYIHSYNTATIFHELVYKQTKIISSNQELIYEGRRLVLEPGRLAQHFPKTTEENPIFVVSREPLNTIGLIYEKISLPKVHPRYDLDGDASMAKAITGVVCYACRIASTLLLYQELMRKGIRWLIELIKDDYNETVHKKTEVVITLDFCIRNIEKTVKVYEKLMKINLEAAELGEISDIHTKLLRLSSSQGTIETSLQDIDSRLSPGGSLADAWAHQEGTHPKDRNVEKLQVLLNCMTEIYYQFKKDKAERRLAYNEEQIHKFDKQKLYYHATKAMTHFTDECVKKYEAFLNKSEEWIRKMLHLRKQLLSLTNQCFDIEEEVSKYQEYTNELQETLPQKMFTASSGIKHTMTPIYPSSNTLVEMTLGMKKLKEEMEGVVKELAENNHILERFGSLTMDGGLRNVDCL
Summary of the method: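 Substrate and product were separated and quantified by microfluidic mobility-shift read (LabChip). 10 uM staurosporine served as the full-inhibition control, and the reference compound was tested from 1 uM final.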

[2] = target: T2, IKKε (Homo sapiens, UniProt Q14164); experiment: IKKε biochemical assay; conditions: 10 point 1:4 dose response, 30 uM top concentration, 90 min at 25° C., LabChip EZ Reader II; read-out: IKKε_IC50
T2 sequence (Q14164 1-716): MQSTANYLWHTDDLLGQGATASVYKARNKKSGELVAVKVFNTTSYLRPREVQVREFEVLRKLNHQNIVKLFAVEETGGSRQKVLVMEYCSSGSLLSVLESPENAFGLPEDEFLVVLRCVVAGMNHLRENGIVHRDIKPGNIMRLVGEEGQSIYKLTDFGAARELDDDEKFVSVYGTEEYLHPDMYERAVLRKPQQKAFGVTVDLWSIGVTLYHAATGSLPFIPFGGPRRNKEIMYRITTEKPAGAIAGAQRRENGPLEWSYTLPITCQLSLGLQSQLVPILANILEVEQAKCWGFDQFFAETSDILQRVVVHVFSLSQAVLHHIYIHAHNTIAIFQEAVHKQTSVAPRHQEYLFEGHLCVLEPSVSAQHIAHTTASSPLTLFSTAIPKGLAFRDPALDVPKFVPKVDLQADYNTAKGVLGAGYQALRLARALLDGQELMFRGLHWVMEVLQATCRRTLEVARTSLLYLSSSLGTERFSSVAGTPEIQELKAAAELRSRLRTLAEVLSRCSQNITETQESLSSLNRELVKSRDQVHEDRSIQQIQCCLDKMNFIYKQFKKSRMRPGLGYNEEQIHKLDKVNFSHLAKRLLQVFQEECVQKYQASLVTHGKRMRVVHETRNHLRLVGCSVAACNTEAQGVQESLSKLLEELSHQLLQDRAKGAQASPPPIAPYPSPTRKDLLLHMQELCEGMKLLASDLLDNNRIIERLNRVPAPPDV
Summary of the method: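 Compounds in 1% DMSO final were incubated with IKKε enzyme and substrate at 25° C. for 90 min, then stopped. Substrate and product peaks were resolved by LabChip EZ Reader II mobility-shift read-out. Staurosporine at 10 uM final served as the full-inhibition control.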

`COc1nc(Nc2nccc(-c3ccc(OC4CCN(C(=O)[C@H](C)O)CC4(F)F)c(C#N)c3)n2)ccc1C(=O)N(C)C` (stereo partly drawn) [Example 324, 6-([4-[3-cyano-4-([3,3-difluoro-1-[(2S)-2-hydroxypropanoyl]piperidin-4-yl]oxy)phenyl]pyrimidin-2-yl]amino)-2-methoxy-N,N-dimethylpyridine-3-carboxamide] was tested, and the IC50 [1] was < 0.1 µM and the IC50 [2] was < 0.1 µM.
With `COc1nc(Nc2nccc(-c3ccc(OC4CCOCC4)c(C#N)c3)n2)ccc1C(=O)NC[C@H](O)CO` [Example 4, 6-{4-[3-Cyano-4-(tetrahydro-pyran-4-yloxy)-phenyl]-pyrimidin-2-ylamino}-N-((S)-23-dihydroxy-propyl)-2-methoxy-nicotinamide] the IC50 [1] was < 0.1 µM and the IC50 [2] was < 0.1 µM.
With `COc1ccc(Nc2nccc(-c3ccc(OC4CCN(C(=O)[C@H](C)O)CC4(F)F)c(C#N)c3)n2)nc1OC` (stereo partly drawn) [Example 211, 2-[3,3-Difluoro-1-((S)-2-hydroxy-propionyl)-piperidin-4-yloxy]-5-[2-(5,6-dimethoxy-pyridin-2-ylamino)-pyrimidin-4-yl]-benzonitrile] the IC50 [1] was < 0.1 µM and the IC50 [2] was < 0.1 µM.
In the case of `COc1nc(Nc2nccc(-c3ccc(OC4CCN(C(=O)[C@@H](O)CO)CC4(F)F)c(C#N)c3)n2)ccc1N1CCN(C2COC2)C[C@H]1C` (stereo partly drawn) [Example 133, 2-[1-((S)-2,3-Dihydroxy-propionyl)-3,3-difluoro-piperidin-4-yloxy]-5-{2-[6-methoxy-5-((R)-2-methyl-4-oxetan-3-yl-piperazin-1-yl)-pyridin-2-ylamino]-pyrimidin-4-yl}-benzonitrile], the IC50 [1] is reported as < 0.1 µM and the IC50 [2] is reported as < 0.1 µM.
`COc1nc(Nc2nccc(-c3ccc(O[C@H]4CCN(C(=O)[C@H](C)O)CC4(F)F)c(C#N)c3)n2)ccc1N1CCN(C2COC2)[C@@H](C)C1` [Example 247, 2 2-[(S)-3,3-Difluoro-1-((S)-2-hydroxy-propionyl)-piperidin-4-yloxy]-5-{2-[6-methoxy-5-((S)-3-methyl-4-oxetan-3-yl-piperazin-1-yl)-pyridin-2-ylamino]-pyrimidin-4-yl}-benzonitrile] was tested, and the IC50 [1] was < 0.1 µM and the IC50 [2] was < 0.1 µM.
For `COc1cc(Nc2nccc(-c3ccc(OC4CCN(C(=O)[C@@H](C)O)CC4(F)F)c(C#N)c3)n2)ccc1C1CCN(C2COC2)CC1` (stereo partly drawn) [Example 227, 2-([3,3-difluoro-1-[(2R)-2-hydroxypropanoyl]piperidin-4-yl]oxy)-5-[2-([3-methoxy-4-[1-(oxetan-3-yl)piperidin-4-yl]phenyl]amino)pyrimidin-4-yl]benzonitrile], the IC50 [1] was < 0.1 µM and the IC50 [2] was < 0.1 µM.
With `COc1nc(Nc2nccc(-c3ccc(O[C@@H]4CCN(C(=O)[C@H](C)O)C[C@@H]4F)c(C#N)c3)n2)ccc1N1CCN(C2COC2)CC1` [Example 118, 2-[(3S,4R)-3-Fluoro-1-((S)-2-hydroxy-propionyl)-piperidin-4-yloxy]-5-{2-[6-methoxy-5-(4-oxetan-3-yl-piperazin-1-yl)-pyridin-2-ylamino]-pyrimidin-4-yl}-benzonitrile] the IC50 [1] was < 0.1 µM and the IC50 [2] was < 0.1 µM.
For `COc1nc(Nc2nccc(-c3ccc(OC4CCN(C(=O)[C@H](C)O)CC4(F)F)c(C#N)c3)n2)ccc1N1CCOCC1` (stereo partly drawn) [Example 275, 2-([3,3-difluoro-1-[(2S)-2-hydroxypropanoyl]piperidin-4-yl]oxy)-5-(2-[[6-methoxy-5-(morpholin-4-yl)pyridin-2-yl]amino]pyrimidin-4-yl)benzonitrile], the IC50 [1] was < 0.1 µM and the IC50 [2] was < 0.1 µM.
`COc1nc(Nc2nccc(-c3ccc(OC4CCN(C(=O)CO)CC4)c(C#N)c3)n2)ccc1N1CCN(C2COC2)CC1` [Example 186, 2-(1-(2-hydroxyacetyl)piperidin-4-yloxy)-5-(2-(6-methoxy-5-(4-(oxetan-3-yl)piperazin-1-yl)pyridin-2-ylamino)pyrimidin-4-yl)benzonitrile] was tested, and the IC50 [1] was < 0.1 µM and the IC50 [2] was < 0.1 µM.
For `COc1nc(Nc2nccc(-c3ccc(OC4CCN(C(=O)[C@@H](O)CO)CC4(F)F)c(C#N)c3)n2)ccc1N1CCN(C2COC2)CC1` (stereo partly drawn) [Example 260, 2-[1-((S)-2,3-Dihydroxy-propionyl)-3,3-difluoro-piperidin-4-yloxy]-5-{2-[6-methoxy-5-(4-oxetan-3-yl-piperazin-1-yl)-pyridin-2-ylamino]-pyrimidin-4-yl}-benzonitrile], the IC50 [1] was < 0.1 µM and the IC50 [2] was < 0.1 µM.
An IC50 [1] of 0.1 to 1 µM and an IC50 [2] of 0.1 to 1 µM were found for `COc1cccc(Nc2nccc(-c3ccc(O[C@H]4CCN(C(=O)[C@H](C)O)CC4(F)F)c(C#N)c3)n2)n1` [Example 240, 2-[[(4S)-3,3-difluoro-1-[(2S)-2-hydroxypropanoyl]piperidin-4-yl]oxy]-5-[2-[(6-methoxypyridin-2-yl)amino]pyrimidin-4-yl]benzonitrile] in this work.
For `N#Cc1cc(-c2ccnc(Nc3cccc(C4CCN(C5COC5)CC4)c3)n2)ccc1OC1CCNCC1(F)F` (stereo not drawn) [Example 222, 2-(3,3-Difluoro-piperidin-4-yloxy)-5-{2-[3-(1-oxetan-3-yl-piperidin-4-yl)-phenylamino]-pyrimidin-4-yl}-benzonitrile], the IC50 [1] was < 0.1 µM and the IC50 [2] was < 0.1 µM.
In the case of `COc1nc(Nc2nccc(-c3ccc(OC4CCNCC4(F)F)c(C#N)c3)n2)ccc1N1CCN(C)C[C@H]1C` (stereo partly drawn) [Example 108, 2-(3,3-Difluoro-piperidin-4-yloxy)-5-{2-[5-((R)-2,4-dimethyl-piperazin-1-yl)-6-methoxy-pyridin-2-ylamino]-pyrimidin-4-yl}-benzonitrile], the IC50 [1] is reported as < 0.1 µM and the IC50 [2] is reported as < 0.1 µM.
With `C[C@@H](O)C(=O)N1CCC(Oc2ccc(-c3ccnc(Nc4ccc(N5CCOCC5)cc4)n3)cc2C#N)C(F)(F)C1` (stereo partly drawn) [Example 215, 2-([3,3-difluoro-1-[(2R)-2-hydroxypropanoyl]piperidin-4-yl]oxy)-5-(2-[[4-(morpholin-4-yl)phenyl]amino]pyrimidin-4-yl)benzonitrile] the IC50 [1] was < 0.1 µM and the IC50 [2] was < 0.1 µM.
In the case of `N#Cc1cc(-c2ccnc(Nc3ccc(N4CCN(C5COC5)CC4)cc3)n2)ccc1OC1CCNCC1(F)F` (stereo not drawn) [Example 136, 2-[(3,3-difluoropiperidin-4-yl)oxy]-5-[2-([4-[4-(oxetan-3-yl)piperazin-1-yl]phenyl]amino)pyrimidin-4-yl]benzonitrile], the IC50 [1] is reported as < 0.1 µM and the IC50 [2] is reported as < 0.1 µM.
`COc1nc(Nc2ncc(F)c(-c3ccc(OC4CCN(C(=O)C(C)O)CC4(F)F)c(C#N)c3)n2)ccc1C1CCN(C2COC2)CC1` (stereo not drawn) [Example 294, 2-{[33-difluoro-1-(2-hydroxypropanoyl)piperidin-4-yl]oxy}-5-[5-fluoro-2-({6-methoxy-5-[1-(oxetan-3-yl)piperidin-4-yl]pyridin-2-yl}amino)pyrimidin-4-yl]benzonitrile] was tested, and the IC50 [1] was < 0.1 µM and the IC50 [2] was < 0.1 µM.
`COc1cc(Nc2nccc(-c3ccc(OC4CCN(C(=O)[C@H](C)O)CC4(F)F)c(C#N)c3)n2)ccc1N1CCN(C2COC2)CC1` (stereo partly drawn) [Example 217, 2-([3,3-difluoro-1-[(2S)-2-hydroxypropanoyl]piperidin-4-yl]oxy)-5-[2-([3-methoxy-4-[4-(oxetan-3-yl)piperazin-1-yl]phenyl]amino)pyrimidin-4-yl]benzonitrile] was tested, and the IC50 [1] was < 0.1 µM and the IC50 [2] was < 0.1 µM.
An IC50 [1] of 0.1 to 1 µM and an IC50 [2] of 0.1 to 1 µM were found for `C[C@@H](O)C(=O)N1CC(COc2ccc(-c3ccnc(Nc4ccc(N5CCN(C6COC6)CC5)cc4)n3)cc2C#N)C1` [Example 278, 2-([1-[(2R)-2-hydroxypropanoyl]azetidin-3-yl]methoxy)-5-[2-([4-[4-(oxetan-3-yl)piperazin-1-yl]phenyl]amino)pyrimidin-4-yl]benzonitrile] in this work.
